Columns and labels:
Type in all cases: cell-based
[1] = system: N87 gastric cancer cell line; test: Cytotoxic activity of dimers, ATP luminescence or MTS cell proliferation assay; conditions: N87 gastric cancer cells, 72 h
Protocol: (§1) The cytotoxic activity of dimers of this invention was tested against H226 lung cancer, 786-O renal cancer, N87 gastric cancer, and/or OVCAR3 ovarian cancer cell lines. The ability of dimers to inhibit cell proliferation can be measured by either an ATP luminescence assay or an MTS cell proliferation assay.
(§2) This is a general procedure for an ATP luminescence assay: Cells are seeded at 1×10^3 cells/well in 96-well plates for 3 h for ATP CellTiterGlo™ assays, respectively. Serial dilutions (1:3) of compounds are added to the wells. Plates are allowed to incubate for 72 h. A CellTiterGlo™ cell viability kit from Promega is used to measure ATP content of cells treated with test compounds following manufacturer's instruction. A decrease in the ATP content is a measure of decrease in cellular viability. The EC50 value—the concentration at which an agent reduces cell viability by 50% of the maximum effect—can be calculated using PRISM™ software, version 5.0 (GraphPad Software, La Jolla, Calif., USA).
(§3) The MTS cell proliferation assay was performed as follows: CellTiter 96 Aqueous Non-Radioactive Cell proliferation Kit from Promega (Madison, Wis.) is used to determine the number of viable cells in cell proliferation assay. Tumor cells are plated at certain seeding densities in sterile 384-well black clear bottom Matrix plates at 40 μL per well and incubated overnight at 37° C. in 5% CO2 before assaying. On the next day, one set of cell plates (10 plates) is used to determine time zero cell density, and 3-(4,5-dimethylthiazol-2-yl)-5-(3-carboxymethoxyphenyl)-2-(4-sulfophenyl)-2H-tetrazolium is added at 4 μL/well into 10 plates followed by incubation at 37° C. in 5% CO2 for three hours. This tetrazolium reagent is bioreduced by […] to form a formazan product which is soluble in aqueous solution. Absorbance at 490 nm is measured on an Envision reader (Perkin Elmer, Boston, Mass.). On the same day, compounds are added into remaining cell plates (T72 plates) and incubated at 37° C. in 5% CO2. After 72 hours, 4 μL MTS reagents are then added into those cell plates. The plates are further incubated at 37° C. in 5% CO2 for three hours and the absorbance values at A490 were measured on an Envision reader.

[2] = system: H226 lung cancer cell line; test: as above; conditions: 72 h
Protocol: as §1, §2, §3

[3] = system: DMS 79 small-cell lung cancer cell line; test: Activity of dimers against small-cell lung cancer cell line (Table IB); conditions: Homo sapiens, DMS 79 small-cell lung cancer cells
[4] = system: H187 small-cell lung cancer cell line; test: as above; conditions: Homo sapiens, NCI-H187, H187 small-cell lung cancer cells
[5] = system: OVCAR3 ovarian cancer cell line; test: Cytotoxic activity of dimers, ATP luminescence or MTS cell proliferation assay; conditions: 72 h
Protocol: as §1, §2, §3

[6] = Homo sapiens, NCI-H226, H226 lung cancer cells
[7] = Homo sapiens, OVCAR-3, OVCAR3 ovarian cancer cells

| SMILES | EC50 [1] | EC50 [2, 6] | EC50 [5, 7] | also measured |
| --- | --- | --- | --- | --- |
| COc1cc2c(cc1OCc1cccc(COc3cc4c(cc3OC)C(=O)N3Cc5ccccc5C[C@H]3C=N4)c1)N=C[C@@H]1Cc3ccccc3CN1C2=O [IIa-21] | 20 pM |  |  |  |
| COc1cc2c(cc1OCCNCCOc1cc3c(cc1OC)C(=O)N1Cc4ccccc4C[C@H]1C=N3)N=C[C@@H]1Cc3ccccc3CN1C2=O [IIa-16, (6aS,6a′S)-3,3′-((azanediylbis(ethane-2,1-diyl))bis(oxy))bis(2-methoxy-6a,7-dihydrobenzo[5,6][1,4]diazepino[1,2-b]isoquinolin-14(12H)-one)] |  | 188 pM |  | IC50 [3]: 0.006 nM; IC50 [4]: 0.005 nM |
| COc1cc2c(cc1OCc1cc(N)cc(COc3cc4c(cc3OC)C(=O)N3Cc5ccccc5C[C@H]3C=N4)c1)N=C[C@@H]1Cc3ccccc3CN1C2=O [IIa-05, (6aS,6a′S)-3,3′-(((5-amino-1,3-phenylene)bis(methylene))bis(oxy))bis(2-methoxy-6a,7-dihydrobenzo[5,6][1,4]diazepino[1,2-b]isoquinolin-14(12H)-one)] | 150 pM | 150 pM | 90 pM |  |
| COc1cc2c(cc1OCCCOc1cc3c(cc1OC)C(=O)N1Cc4ccccc4C[C@H]1CN3)NC[C@@H]1Cc3ccccc3CN1C2=O [IIa-04] | 5700 pM | 8000 pM | 2600 pM |  |
| COc1cc2c(cc1OCCCCCOc1cc3c(cc1OC)C(=O)N1c4ccncc4C[C@H]1C=N3)N=C[C@@H]1Cc3ccccc3CN1C2=O [IIc-01] | 280 pM |  |  |  |
| COc1cc2c(cc1OCCCCCOc1cc3c(cc1OC)C(=O)N1Cc4cc(N)ccc4C[C@H]1C=N3)N=C[C@@H]1Cc3ccccc3CN1C2=O [IIa-10] | 30 pM | 20 pM | 20 pM |  |
| COc1cc2c(cc1OCCCOc1cc3c(cc1OC)C(=O)N1Cc4ccccc4C[C@H]1CN3)N=C[C@@H]1Cc3ccccc3CN1C2=O [IIa-03] | 460 pM |  |  | EC50 ([2]; H226 lung cancer cells): 410 pM; EC50 ([5]; OVCAR3 ovarian cancer cells): 180 pM |
| COc1cc2c(cc1OCc1cc(COc3cc4c(cc3OC)C(=O)N3Cc5ccccc5C[C@H]3C=N4)cc(N=[N+]=[N-])c1)N=C[C@@H]1Cc3ccccc3CN1C2=O [IIa-22] | 50 pM |  |  |  |
| COc1ccc2c(c1)CN1C(=O)c3cc(OC)c(OCCCOc4cc5c(cc4OC)C(=O)N4C=C(c6ccc(N)cc6)C[C@H]4C=N5)cc3N=C[C@@H]1C2 [IIb-03] | 110 pM | 150 pM | 330 pM | IC50 [3]: 0.003 nM; IC50 [4]: 0.002 nM |
| COc1cc2c(cc1OCCNCCOc1cc3c(cc1OC)C(=O)N1Cc4ccccc4C[C@H]1CN3)N=C[C@@H]1Cc3ccccc3CN1C2=O [IIa-20] | 1300 pM |  |  |  |
| COc1cc2c(cc1OCCCCCOc1cc3c(cc1OC)C(=O)N1Cc4ccccc4C[C@H]1C=N3)N=C[C@@H]1CCCN1C2=O [IIb-01] | 330 pM | 440 pM | 220 pM |  |
| COc1cc2c(cc1OCCCOc1cc3c(cc1OC)C(=O)N1Cc4ccccc4C[C@H]1C=N3)N=C[C@@H]1Cc3ccccc3CN1C2=O [IIa-01] | 16 pM |  | 150 pM |  |
| COc1cc2c(cc1OCCCCCOc1cc3c(cc1OC)C(=O)N1Cc4ccccc4C[C@H]1C=N3)N=C[C@@H]1Cc3ccccc3CN1C2=O [IIa-02] | 49 to 150 pM |  |  | EC50 ([2]; H226 lung cancer cells): 46 to 180 pM; EC50 ([5]; OVCAR3 ovarian cancer cells): 77 to 120 pM |
| COc1cc2c(cc1OCC(N)COc1cc3c(cc1OC)C(=O)N1Cc4ccccc4C[C@H]1C=N3)N=C[C@@H]1Cc3ccccc3CN1C2=O [IIa-18] |  |  |  | EC50 ([2]; H226 lung cancer cells): 3200 pM |
